Data taken from ChEMBL document CHEMBL4052635, “Discovery of novel antitumor nitric oxide-donating β-elemene hybrids through inhibiting the PI3K/Akt pathway” (Eur J Med Chem, 2017).
Activity calls are given as the source filed them. The rule behind the calls is not given here.

Experiments:
SGC-7901 = test: Antiproliferative activity against human SGC7901 cells after 72 hrs by MTT assay; format: functional, cell-based; details: SGC-7901, 72 h
[1] = Antiproliferative activity against human U87 cells after 72 hrs by MTT assay; format: functional, cell-based, U-87MG ATCC; details: U-87 MG
HeLa = test: Antiproliferative activity against human HeLa cells after 72 hrs by MTT assay; format: functional, cell-based
[2] = Induction of NO production at 100 uM in presence of 5.0 mM L-cysteine incubated for 120 mins measured every 15 mins by Griess assay
Mus musculus [3] = test: Toxicity in ICR mouse xenografted with […] cells assessed as body weight at 60 mg/kg, iv administered qd for 3 weeks (reference value: 22.9 +/- 0.4 g); format: organism-based; details: in vivo, 504 h
H22 [4] = test: Antitumor activity against […] cells xenografted in ICR mouse assessed as tumor growth inhibition at 60 mg/kg, iv qd for 3 weeks relative to control; format: functional; details: 504 h, read-out: TGI
L02 = test: Cytotoxicity against human LO2 cells assessed as reduction in cell viability after 72 hrs by MTT assay; format: cell-based; details: L02, 72 h
[5] = Induction of apoptosis in human U87 cells assessed as viable cells at 2 nM measured after 72 hrs by Annexin V-APC/7-AAD staining based flow cytometry (reference value: 92.71%); format: functional, U-87MG ATCC; details: U-87 MG, read-out: Activity
[6] = Induction of apoptosis in human U87 cells assessed as late apoptotic cells at 1 nM measured after 72 hrs by Annexin V-APC/7-AAD staining based flow cytometry (reference value: 3.02%); format: functional, U-87MG ATCC
Homo sapiens [7] = organism: Homo sapiens; test: Inhibition of PI3K/Akt activation in human U87 cells assessed as decrease in Bcl-2 protein expression after 72 hrs by Western blot method; format: cell-based
[8] = Cell cycle arrest in human U87 cells assessed as accumulation at S phase at 0.5 nM after 72 hrs by propidium iodide staining based flow cytometry (reference value: 27.03%); format: functional, U-87MG ATCC
[9] = target: RAC-alpha serine/threonine-protein kinase (Homo sapiens) (UniProt P31749); test: Inhibition of Akt phosphorylation in human U87 cells after 72 hrs by Western blot method; format: cell-based
Sequence of RAC-alpha serine/threonine-protein kinase (Homo sapiens) (P31749 whole entry): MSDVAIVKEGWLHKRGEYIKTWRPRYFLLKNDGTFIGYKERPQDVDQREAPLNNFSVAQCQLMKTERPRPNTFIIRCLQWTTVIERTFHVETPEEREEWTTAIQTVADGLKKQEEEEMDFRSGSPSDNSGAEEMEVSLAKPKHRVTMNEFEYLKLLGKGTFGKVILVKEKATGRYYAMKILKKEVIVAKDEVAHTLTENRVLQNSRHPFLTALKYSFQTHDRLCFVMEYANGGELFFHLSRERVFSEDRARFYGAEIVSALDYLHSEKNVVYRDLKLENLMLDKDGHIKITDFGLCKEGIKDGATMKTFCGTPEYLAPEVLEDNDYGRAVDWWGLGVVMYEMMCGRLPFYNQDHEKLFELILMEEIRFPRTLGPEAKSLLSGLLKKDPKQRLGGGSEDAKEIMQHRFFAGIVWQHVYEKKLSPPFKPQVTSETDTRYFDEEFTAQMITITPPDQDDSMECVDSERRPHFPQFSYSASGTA

[10] = Induction of apoptosis in human U87 cells assessed as necrotic cells at 0.5 nM measured after 72 hrs by Annexin V-APC/7-AAD staining based flow cytometry (reference value: 0.44%); format: functional, U-87MG ATCC
Mus musculus [11] = test: Toxicity in ICR mouse xenografted with […] cells assessed as body weight at 30 mg/kg, iv administered qd for 3 weeks (reference value: 22.9 +/- 0.4 g); format: organism-based; details: in vivo, 504 h
[12] = Induction of apoptosis in human U87 cells assessed as early apoptotic cells at 0.5 nM measured after 72 hrs by Annexin V-APC/7-AAD staining based flow cytometry (reference value: 3.82%); format: functional, U-87MG ATCC
[13] = Induction of apoptosis in human U87 cells assessed as late apoptotic cells at 2 nM measured after 72 hrs by Annexin V-APC/7-AAD staining based flow cytometry (reference value: 3.02%); format: functional, U-87MG ATCC
[14] = Cell cycle arrest in human U87 cells assessed as accumulation at G2 phase at 0.5 nM after 72 hrs by propidium iodide staining based flow cytometry (reference value: 18.86%); format: functional, U-87MG ATCC
Homo sapiens [15] = organism: Homo sapiens; test: Inhibition of PI3K/Akt activation in human U87 cells assessed as increase in pro-apoptotic Bax protein expression after 72 hrs by Western blot method; format: cell-based
[16] = Induction of apoptosis in human U87 cells assessed as necrotic cells at 1 nM measured after 72 hrs by Annexin V-APC/7-AAD staining based flow cytometry (reference value: 0.44%); format: functional, U-87MG ATCC
[17] = Cell cycle arrest in human U87 cells assessed as accumulation at G1 phase at 0.5 nM after 72 hrs by propidium iodide staining based flow cytometry (reference value: 54.11%); format: functional, U-87MG ATCC
Homo sapiens [18] = organism: Homo sapiens; test: Inhibition of PI3K/Akt activation in human U87 cells assessed as increase in caspase-3 level after 72 hrs by Western blot method; format: cell-based
[19] = Induction of apoptosis in human U87 cells assessed as viable cells at 0.5 nM measured after 72 hrs by Annexin V-APC/7-AAD staining based flow cytometry (reference value: 92.71%); format: functional, U-87MG ATCC; details: U-87 MG, read-out: Activity
H22 [20] = test: Antitumor activity against […] cells xenografted in iv dosed ICR mouse assessed as tumor growth inhibition administered qd for 3 weeks; format: functional, organism-based
[21] = Cell cycle arrest in human U87 cells assessed as accumulation at S phase at 1 nM after 72 hrs by propidium iodide staining based flow cytometry (reference value: 27.03%); format: functional, U-87MG ATCC
[22] = Induction of apoptosis in human U87 cells assessed as necrotic cells at 2 nM measured after 72 hrs by Annexin V-APC/7-AAD staining based flow cytometry (reference value: 0.44%); format: functional, U-87MG ATCC
[23] = Induction of apoptosis in human U87 cells assessed as viable cells at 1 nM measured after 72 hrs by Annexin V-APC/7-AAD staining based flow cytometry (reference value: 92.71%); format: functional, U-87MG ATCC; details: U-87 MG, read-out: Activity
[24] = Induction of apoptosis in human U87 cells assessed as early apoptotic cells at 2 nM measured after 72 hrs by Annexin V-APC/7-AAD staining based flow cytometry (reference value: 3.82%); format: functional, U-87MG ATCC
[25] = Induction of apoptosis in human U87 cells assessed as late apoptotic cells at 0.5 nM measured after 72 hrs by Annexin V-APC/7-AAD staining based flow cytometry (reference value: 3.02%); format: functional, U-87MG ATCC
[26] = Cell cycle arrest in human U87 cells assessed as accumulation at G2 phase at 2 nM after 72 hrs by propidium iodide staining based flow cytometry (reference value: 18.86%); format: functional, U-87MG ATCC
[27] = Induction of apoptosis in human U87 cells assessed as early apoptotic cells at 1 nM measured after 72 hrs by Annexin V-APC/7-AAD staining based flow cytometry (reference value: 3.82%); format: functional, U-87MG ATCC
[28] = Cell cycle arrest in human U87 cells assessed as accumulation at G1 phase at 2 nM after 72 hrs by propidium iodide staining based flow cytometry (reference value: 54.11%); format: functional, U-87MG ATCC
U-87MG ATCC = test: Antiproliferative activity against human U87 cells after 72 hrs in presence of NO scavenger hemoglobin/PTIO by MTT assay; format: functional, cell-based
[29] = Cell cycle arrest in human U87 cells assessed as accumulation at G1 phase at 1 nM after 72 hrs by propidium iodide staining based flow cytometry (reference value: 54.11%); format: functional, U-87MG ATCC
[30] = Cell cycle arrest in human U87 cells assessed as accumulation at S phase at 2 nM after 72 hrs by propidium iodide staining based flow cytometry (reference value: 27.03%); format: functional, U-87MG ATCC
[31] = Cell cycle arrest in human U87 cells assessed as accumulation at G2 phase at 1 nM after 72 hrs by propidium iodide staining based flow cytometry (reference value: 18.86%); format: functional, U-87MG ATCC
H22 [32] = test: Antitumor activity against […] cells xenografted in ICR mouse assessed as tumor growth inhibition at 30 mg/kg, iv qd for 3 weeks relative to control; format: functional; details: 504 h, read-out: TGI

C=C[C@]1(C)CC[C@@H](C(=C)COC(=O)[C@H](Cc2ccccc2)NC(=O)CCC(=O)OCCCCOc2no[n+]([O-])c2S(=O)(=O)c2ccccc2)C[C@H]1C(=C)C
IC50 (SGC-7901): 9.97 µM | IC50 [1]: 0.061 µM | IC50 (HeLa): 10.8 µM

C=C[C@]1(C)CC[C@@H](C(=C)CO)C[C@H]1C(=C)C
IC50 [1]: 198 µM

C=C[C@]1(C)CC[C@@H](C(=C)COC(=O)CCC(=O)OCCCCCCOc2no[n+]([O-])c2S(=O)(=O)c2ccccc2)C[C@H]1C(=C)C
Activity [2]: inactive | IC50 (SGC-7901): 22.9 µM | IC50 [1]: 0.154 µM | IC50 (HeLa): 23.2 µM

C=C[C@]1(C)CC[C@@H](C(=C)COC(=O)[C@H](C)NC(=O)CCC(=O)OCCCCOc2no[n+]([O-])c2S(=O)(=O)c2ccccc2)C[C@H]1C(=C)C
IC50 (SGC-7901): 11.8 µM | IC50 [1]: 0.114 µM | IC50 (HeLa): 10.9 µM

C=C[C@]1(C)CC[C@@H](C(=C)COC(=O)CCC(=O)OCC#CCOc2no[n+]([O-])c2S(=O)(=O)c2ccccc2)C[C@H]1C(=C)C
IC50 (SGC-7901): 4.97 µM | IC50 [1]: 0.085 µM | IC50 (HeLa): 3.78 µM

O=C(O)CCC(=O)OCCOc1c(S(=O)(=O)c2ccccc2)no[n+]1[O-]
IC50 [1]: 32.2 µM

C=C[C@]1(C)CC[C@@H](C(=C)COC(=O)[C@@H](NC(=O)CCC(=O)OCCCCOc2no[n+]([O-])c2S(=O)(=O)c2ccccc2)[C@@H](C)CC)C[C@H]1C(=C)C
Activity [2]: Active | IC50 (SGC-7901): 3.66 µM | IC50 [1]: 0.01 µM | IC50 (HeLa): 4.25 µM

C=C[C@]1(C)CC[C@@H](C(=C)COC(=O)[C@@H]2CCCN2C(=O)CCC(=O)OCCCCOc2no[n+]([O-])c2S(=O)(=O)c2ccccc2)C[C@H]1C(=C)C
IC50 (SGC-7901): 9.49 µM | IC50 [1]: 0.055 µM | IC50 (HeLa): 11.2 µM

C=C[C@]1(C)CC[C@@H](C(=C)C)C[C@H]1C(=C)C
Activity (Mus musculus [3]): 20 g | inhibition in vivo at 60 mg/kg (H22 [4]): 49.6% | IC50 (SGC-7901): 236 µM | IC50 [1]: 180 µM | IC50 (HeLa): 214 µM

C=C[C@]1(C)CC[C@@H](C(=C)COC(=O)c2ccccc2C(=O)OCCCCOc2no[n+]([O-])c2S(=O)(=O)c2ccccc2)C[C@H]1C(=C)C
Activity [2]: inactive | IC50 (SGC-7901): 27.8 µM | IC50 [1]: 0.081 µM | IC50 (HeLa): 21.9 µM

C=C[C@]1(C)CC[C@@H](C(=C)COC(=O)CCC(=O)OCCOc2no[n+]([O-])c2S(=O)(=O)c2ccccc2)C[C@H]1C(=C)C
IC50 (L02): 30.4 µM | viability at 0.002 µM [5]: 46% | Activity [6]: 9.91% | inhibition (Homo sapiens [7]): Dose-dependent effect | Activity [8]: 26.69% | inhibition [9]: Dose-dependent effect | Activity (Mus musculus [3]): 20.9 g | Activity [10]: 1.25% | inhibition in vivo at 60 mg/kg (H22 [4]): 64.8% | Activity (Mus musculus [11]): 21.6 g | Activity [12]: 8.16% | Activity [13]: 19.07% | Activity [2]: Active | IC50 (SGC-7901): 3.18 µM | Activity [14]: 22.91% | inhibition (Homo sapiens [15]): Dose-dependent effect | Activity [16]: 0.19% | Activity [17]: 50.4% | inhibition (Homo sapiens [18]): Dose-dependent effect | viability at 0.0005 µM [19]: 80.4% | TGI (H22 [20]): Dose-dependent effect | Activity [21]: 31.68% | Activity [22]: 0.25% | viability at 0.001 µM [23]: 64.9% | Activity [24]: 34.63% | IC50 [1]: 0.002 µM | Activity [25]: 10.16% | Activity [26]: 47.99% | Activity [27]: 25.03% | Activity [28]: 26.96% | IC50 (HeLa): 4.94 µM | Activity (U-87MG ATCC): Dose-dependent effect | Activity [29]: 34.97% | Activity [30]: 25.04% | Activity [31]: 33.35% | inhibition in vivo at 30 mg/kg (H22 [32]): 50.2%

C=C[C@]1(C)CC[C@@H](C(=C)COC(=O)CCC(=O)OCCCCOc2no[n+]([O-])c2S(=O)(=O)c2ccccc2)C[C@H]1C(=C)C
IC50 (SGC-7901): 8.76 µM | IC50 [1]: 0.007 µM | IC50 (HeLa): 10.9 µM

C=C[C@]1(C)CC[C@@H](C(=C)COC(=O)CCNC(=O)CCC(=O)OCCCCOc2no[n+]([O-])c2S(=O)(=O)c2ccccc2)C[C@H]1C(=C)C
IC50 (SGC-7901): 7.78 µM | IC50 [1]: 0.058 µM | IC50 (HeLa): 8.86 µM

C=C[C@]1(C)CC[C@@H](C(=C)COC(=O)CNC(=O)CCC(=O)OCCCCOc2no[n+]([O-])c2S(=O)(=O)c2ccccc2)C[C@H]1C(=C)C
IC50 (SGC-7901): 15.3 µM | IC50 [1]: 0.173 µM | IC50 (HeLa): 10.2 µM

C=C[C@]1(C)CC[C@@H](C(=C)COC(=O)CCC(=O)OCCOCCOc2no[n+]([O-])c2S(=O)(=O)c2ccccc2)C[C@H]1C(=C)C
IC50 (SGC-7901): 4.66 µM | IC50 [1]: 0.024 µM | IC50 (HeLa): 5.78 µM

C=C[C@]1(C)CC[C@@H](C(=C)COC(=O)[C@@H](N)CC(=O)OCCCCOc2no[n+]([O-])c2S(=O)(=O)c2ccccc2)C[C@H]1C(=C)C
Activity [2]: Active | IC50 (SGC-7901): 2.92 µM | IC50 [1]: 0.124 µM | IC50 (HeLa): 3.64 µM
